According to patent US8067424B2, “Selective inhibitors for cyclin-dependent kinases” (Emory University, priority 2007, dated 2011):
Where two headings read alike, the source gives them in different places.

Assays:
[1] = target: T1, CDK9/cyclin T complex (Homo sapiens, UniProt P50750); experiment: CDK9/cyclin T kinase assay (as for CDK7); format: biochemical; conditions: for remaining activity at 0.1 µM: 100 nM, mean of three (standard deviation), read-out: CDK9 % remaining kinase activity after incubation with 100 nM of compound
T1 construct: purchased Proqinase GmbH, Germany
Method: (§1) Prepared test compounds, prepared at concentrations of 1000, 100, 10, 1 and 0.1 μM. Diluted 1 in 40 in ddH2O and added 1 μl of test compound or DMSO (controls). • 3. Incubated at 30° C. for 30 mins in a water bath. • 4. Added 10 µl of ATP […] per reaction to get a final concentration of 2 μM ATP. • 5. Made up to 25 μl total volume with ddH2O • 6. Incubated for 20 min at 30° C. in a water bath • 7. Used the PKLight Kinase assay (Cambrex, UK), add to each reaction 10 μl of stop reaction and mix thoroughly. Incubated at room temp for 10 min. • 8. Added 20 μ1 Luciferase reaction mixture (Cambrex, UK) per reaction, and further incubated at room temp for 10 mins and determined luciferase activities according to manufacturer's methods. Kinase reactions were added to 96 well microplates and luciferase activities determined using a Packard TopCount NXT™ luminescent counter (TopCount 9904). The luminometer was programmed to take a read time of 0.1 integrated reading and emission of light was detectable at 560 nm. • 9. All kinase inhibition assays were carried out in triplicate. As the bioluminescent signal is inversely proportional to kinase activity, all values were deducted from the no enzyme control. These values were then plotted utilizing the enzyme control as a reference to 100% activity and compared to all other values.
(§2) Inhibition of CDK2 was assessed using 50 ng CDK2/cyclin A complex (Proqinase GmbH, Germany), as above for CDK7 Inhibition of CDK9 was assessed using 100 ng CDK9/cyclin T complex (Proqinase GmbH, Germany), as above for CDK7.

[2] = target: T2, CDK2/cyclin A complex (Homo sapiens, UniProt P24941); experiment: CDK2/cyclin A kinase assay (as for CDK7); format: biochemical; conditions: for remaining activity at 0.1 µM: 100 nM, mean of three (standard deviation), read-out: CDK2 % remaining kinase activity after incubation with 100 nM of compound
T2 construct: purchased Proqinase GmbH, Germany
Method: as §1, §2

[3] = target: CDK4 (Homo sapiens, UniProt P11802); experiment: CDK4 in vitro kinase inhibition (protocol similar to Example 14); format: biochemical; conditions: for remaining activity at 0.1 µM: 100 nM, mean of three (standard deviation), read-out: CDK4 % remaining kinase activity after incubation with 100 nM of compound; for IC50: Table 7, mean of three experiments
Method: as §1
(§3) This example provides in vitro kinase inhibition data for various compounds within the scope of the invention versus CDK 2, CDK 4, CDK, 5, CDK 7 and CDK 9. The protocol was similar to that shown in Example 14 Inhibition of the protein kinases was performed in triplicate using each compound at 100 nM.
(§4) This example provides in vitro kinase inhibition data for various compounds within the scope of the invention versus CDK 2, CDK 4, CDK, 5, CDK 7 and CDK 9.

[4] = target: CDK 5 (Homo sapiens, UniProt Q00535); experiment: CDK5 in vitro kinase inhibition (protocol similar to Example 14); format: biochemical; conditions: 100 nM; mean of three (standard deviation); read-out: CDK5 % remaining kinase activity after incubation with 100 nM of compound
Method: as §1, §3, §4

[5] = tested on: MCF-7 cell line; experiment: cells; format: cell-based; conditions: MCF-7, SRB assay, 24 hours; for IC (total growth inhibition): read-out: TGI; for IC50: MCF7, mean of three experiments, read-out: IC50
Method: In the SRB assay, sixteen hours following seeding of 3×10^3 MCF-7 cells in 96-well plates in DMEM containing 10% FCS, the medium was replaced with fresh medium supplemented with the compound of interest, or an equivalent volume of the vehicle control (DMSO), at concentrations, ranging from 0.1 to 100 μM. The compounds were added to three well to provide replicates. The cells were fixed after 24 hours, using 40% (w/v) TCA, for one hour at 4° C., washed five times with distilled, deionised H2O, followed by incubation with 0.4% (w/v) sulphorhodamine B (SRB) in 1% acetic acid for one hour at room temperature. Excess dye was removed with five washes with 1% acetic acid and drying at room temperature. Absorbance at 480 nm was determined following solubilisation of the dye by the addition of 100 μl of 10 mM Tris base to each well.
SRB values (absorbance at 480 nm) for the vehicle control (DMSO) were set at 100% and absorbance at 480 nm for the compound treatments were calculated relative to the control.

[6] = target: T3, CDK7 complex (CDK7, Cyclin H, MAT1) (Homo sapiens, UniProt P50613); experiment: CDK7/CycH/MAT1 trimeric complex kinase assay (PKLight luciferase); format: biochemical; conditions: for IC50: Table 2; for remaining activity at 0.1 µM: 100 nM, mean of three (standard deviation), read-out: CDK7 % remaining kinase activity after incubation with 100 nM of compound
T3 construct: purchased Proqinase GmbH, Germany
Method: as §1

[7] = Table 7, mean of three experiments, read-out: CDK2 kinase inhibition in vitro (IC50)

T3 sequence (P50613 whole entry): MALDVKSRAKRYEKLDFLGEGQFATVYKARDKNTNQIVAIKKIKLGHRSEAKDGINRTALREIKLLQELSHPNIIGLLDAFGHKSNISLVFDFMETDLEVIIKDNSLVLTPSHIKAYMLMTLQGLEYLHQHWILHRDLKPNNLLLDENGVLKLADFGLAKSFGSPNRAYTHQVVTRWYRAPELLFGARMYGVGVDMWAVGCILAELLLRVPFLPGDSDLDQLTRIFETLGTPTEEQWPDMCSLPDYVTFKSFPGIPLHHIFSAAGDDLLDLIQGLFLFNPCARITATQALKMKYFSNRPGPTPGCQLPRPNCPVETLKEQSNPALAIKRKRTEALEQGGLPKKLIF
T3 sequence (P51946 whole entry partner): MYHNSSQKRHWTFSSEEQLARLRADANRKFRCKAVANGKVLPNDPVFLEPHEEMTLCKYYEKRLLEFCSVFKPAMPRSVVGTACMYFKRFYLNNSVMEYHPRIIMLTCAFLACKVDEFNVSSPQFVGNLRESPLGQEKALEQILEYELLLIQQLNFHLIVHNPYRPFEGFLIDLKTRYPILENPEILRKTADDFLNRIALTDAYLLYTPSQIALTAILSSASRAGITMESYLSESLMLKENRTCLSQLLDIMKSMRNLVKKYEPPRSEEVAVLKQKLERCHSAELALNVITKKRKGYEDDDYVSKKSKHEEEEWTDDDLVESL
T3 sequence (P51948 whole entry partner): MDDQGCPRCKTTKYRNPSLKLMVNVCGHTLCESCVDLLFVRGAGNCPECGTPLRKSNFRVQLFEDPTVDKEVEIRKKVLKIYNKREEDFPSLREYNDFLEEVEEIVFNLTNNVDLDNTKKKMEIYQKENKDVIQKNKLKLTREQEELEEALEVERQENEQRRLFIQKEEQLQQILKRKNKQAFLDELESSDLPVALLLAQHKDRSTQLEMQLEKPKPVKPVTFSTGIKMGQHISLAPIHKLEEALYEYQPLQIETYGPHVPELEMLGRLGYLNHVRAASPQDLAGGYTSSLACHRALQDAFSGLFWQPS
Sequence of CDK 5 (Q00535 whole entry): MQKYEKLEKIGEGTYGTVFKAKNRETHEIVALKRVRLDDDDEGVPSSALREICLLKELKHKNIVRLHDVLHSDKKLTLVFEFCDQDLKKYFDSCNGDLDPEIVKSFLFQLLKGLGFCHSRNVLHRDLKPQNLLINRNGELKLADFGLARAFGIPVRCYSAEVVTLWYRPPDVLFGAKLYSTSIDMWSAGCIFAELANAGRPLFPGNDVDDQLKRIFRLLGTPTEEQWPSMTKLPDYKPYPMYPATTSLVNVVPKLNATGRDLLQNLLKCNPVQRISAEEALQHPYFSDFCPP
Sequence of CDK 5 (Q15078 whole entry partner): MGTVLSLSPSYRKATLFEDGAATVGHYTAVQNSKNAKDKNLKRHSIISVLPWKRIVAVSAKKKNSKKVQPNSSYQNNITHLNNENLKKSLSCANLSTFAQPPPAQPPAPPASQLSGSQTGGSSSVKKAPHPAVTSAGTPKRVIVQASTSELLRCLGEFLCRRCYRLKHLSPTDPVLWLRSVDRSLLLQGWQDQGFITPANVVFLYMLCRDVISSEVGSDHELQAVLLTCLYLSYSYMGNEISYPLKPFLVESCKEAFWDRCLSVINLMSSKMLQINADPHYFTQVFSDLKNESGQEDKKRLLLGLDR
Sequence of CDK4 (P11802 whole entry): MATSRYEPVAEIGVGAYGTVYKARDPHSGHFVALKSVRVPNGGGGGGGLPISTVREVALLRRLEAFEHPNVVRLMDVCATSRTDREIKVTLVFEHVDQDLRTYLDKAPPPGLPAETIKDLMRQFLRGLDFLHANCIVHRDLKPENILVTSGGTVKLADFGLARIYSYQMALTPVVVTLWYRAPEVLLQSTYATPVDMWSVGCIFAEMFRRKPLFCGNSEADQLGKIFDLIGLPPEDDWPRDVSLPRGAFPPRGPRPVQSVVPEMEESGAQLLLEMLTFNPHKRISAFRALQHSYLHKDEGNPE
Sequence of CDK4 (P24385 whole entry partner): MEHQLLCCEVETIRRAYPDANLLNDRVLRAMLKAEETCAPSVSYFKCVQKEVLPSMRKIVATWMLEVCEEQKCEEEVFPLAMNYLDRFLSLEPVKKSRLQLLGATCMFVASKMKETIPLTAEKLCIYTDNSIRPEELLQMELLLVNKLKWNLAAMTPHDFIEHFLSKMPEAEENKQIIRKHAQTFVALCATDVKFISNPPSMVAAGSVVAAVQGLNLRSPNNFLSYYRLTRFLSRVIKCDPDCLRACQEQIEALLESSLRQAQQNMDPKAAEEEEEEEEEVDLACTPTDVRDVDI
T1 sequence (P50750 whole entry): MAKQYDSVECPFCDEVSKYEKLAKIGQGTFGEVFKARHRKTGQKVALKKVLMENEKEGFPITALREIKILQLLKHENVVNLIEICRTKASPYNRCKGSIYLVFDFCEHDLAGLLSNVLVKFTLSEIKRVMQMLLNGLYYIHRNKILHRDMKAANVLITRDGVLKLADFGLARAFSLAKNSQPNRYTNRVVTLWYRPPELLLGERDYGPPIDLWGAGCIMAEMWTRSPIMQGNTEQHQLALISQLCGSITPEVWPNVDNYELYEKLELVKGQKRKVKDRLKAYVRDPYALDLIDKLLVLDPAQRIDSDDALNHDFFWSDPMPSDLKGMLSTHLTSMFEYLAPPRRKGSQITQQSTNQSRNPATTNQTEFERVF
T1 sequence (O60563 whole entry partner): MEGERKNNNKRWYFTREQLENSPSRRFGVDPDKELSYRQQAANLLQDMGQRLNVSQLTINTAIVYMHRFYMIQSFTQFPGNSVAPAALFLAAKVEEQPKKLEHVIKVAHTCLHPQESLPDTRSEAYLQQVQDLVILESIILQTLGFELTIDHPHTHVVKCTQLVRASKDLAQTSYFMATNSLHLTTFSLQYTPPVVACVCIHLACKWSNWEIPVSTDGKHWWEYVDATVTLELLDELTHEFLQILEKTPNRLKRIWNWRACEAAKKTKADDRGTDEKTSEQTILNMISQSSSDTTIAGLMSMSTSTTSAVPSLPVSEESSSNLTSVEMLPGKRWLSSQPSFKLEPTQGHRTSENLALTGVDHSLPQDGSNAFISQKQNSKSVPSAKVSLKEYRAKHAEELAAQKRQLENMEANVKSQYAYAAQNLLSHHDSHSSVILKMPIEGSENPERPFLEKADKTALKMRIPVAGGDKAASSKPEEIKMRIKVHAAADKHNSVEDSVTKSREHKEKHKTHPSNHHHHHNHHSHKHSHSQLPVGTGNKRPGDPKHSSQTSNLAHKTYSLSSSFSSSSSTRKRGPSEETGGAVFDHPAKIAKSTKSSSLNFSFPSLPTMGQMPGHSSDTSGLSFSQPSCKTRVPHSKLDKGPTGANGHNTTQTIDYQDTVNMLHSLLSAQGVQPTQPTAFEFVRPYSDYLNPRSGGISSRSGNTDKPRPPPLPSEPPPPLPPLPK

Compound	remaining activity at 0.1 µM [1]	remaining activity at 0.1 µM [2]	IC50 [2, 7]	remaining activity at 0.1 µM [3]	IC50 [3]	remaining activity at 0.1 µM [4]	LC50 (concentration causing 50% net cell kill) ([5]; Homo sapiens, MCF7, 24 h)	IC (total growth inhibition) ([5]; Homo sapiens, MCF7, 24 h)	IC50 ([5]; Homo sapiens)	IC50 ([1]; Table 2, read-out: CDK9 IC50)	IC50 ([2]; Table 2, read-out: CDK2 IC50)	IC50 [6]	IC50 ([1]; Table 7, mean of three experiments, read-out: CDK9 kinase inhibition in vitro (IC50))	remaining activity at 0.1 µM [6]	LC50 (concentration causing 50% net cell kill) ([5]; listed as ICEC-0325 (AS-570))	IC (total growth inhibition) ([5]; listed as ICEC-0325 (AS-570))
CC(C)c1cnn2c(NCc3ccccc3)cc(N[C@@H](CO)CCCCCCc3cncnc3)nc12 [ICEC-0174]	92%	31.5%	0.1 µM	99%	> 1 µM	97%	35 µM	> 100 µM	> 100 µM	–	–	–	–	–	–	–
CC[C@H](CO)Nc1cc(NCc2ccccc2)n2ncc(C(C)C)c2n1 [Example 6]	–	–	–	–	–	–	–	–	–	~0.1 µM	> 1 µM	0.07 µM	–	–	–	–
CC(C)c1cnn2c(NCc3ccccc3F)cc(N[C@@H](CO)CCCCCCN)nc12 [Example 12]	–	–	–	–	–	–	–	–	–	0.1 to 1 µM	> 1 µM	~0.1 µM	–	–	–	–
CC(C)Nc1cc(NCc2ccccc2)n2ncc(C(C)C)c2n1 [ICEC0057]	93%	55.5%	0.1 µM	75.5%	> 1 µM	84%	20.3 µM	36.5 µM	> 100 µM	–	–	–	> 1 µM	75%	–	–
CC(C)c1cnn2c(NCc3ccccc3)cc(N[C@@H](CO)CCCCCCc3ccccn3)nc12 [ICEC-0325]	99%	24%	–	100%	–	96%	–	–	–	–	–	–	–	–	17 µM	32 µM
CC(C)c1cnn2c(NCc3ccccc3F)cc(NCCCCCCN)nc12 [ICEC-0326]	99%	25%	–	99%	–	91%	92 µM	> 100 µM	> 100 µM	–	–	–	–	–	–	–
CC(C)c1cnn2c(NCc3ccccc3)cc(NCCCCCCC(=N)N)nc12 [ICEC-0187]	99%	9.3%	–	98%	–	93%	23 µM	> 100 µM	> 100 µM	–	–	–	–	–	–	–
CC(C)c1cnn2c(NCc3ccccc3F)cc(N[C@@H](CO)CCCCCCc3ccc4ccccc4n3)nc12 [ICEC-0327]	51%	16%	–	99%	–	96%	29 µM	36 µM	47 µM	–	–	–	–	–	–	–
CC(C)c1cnn2c(NCc3ccccc3F)cc(NCCO)nc12 [ICEC0297, 2-(7-(2-fluorobenzylamino)-3-isopropylpyrazolo[1,5-a]pyrimidin-5-ylamino)ethanol]	78%	98%	–	100%	–	76%	–	–	–	–	–	–	–	98%	–	–
CC(C)Nc1cc(NCc2ccccc2)n2ncc(C(C)C)c2n1 [Example 2, N^7-Benzyl-N^5,3-diisopropylpyrazolo[1,5-a]pyrimidine-5,7-diamine]	–	–	–	–	–	–	–	–	–	> 1 µM	~0.1 µM	> 1 µM	–	–	–	–
